The text below walks through data of PubChem BioAssay (NCI).

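Cultured in 96-well plates, cells were exposed to test compound for 48 hours across five concentrations. The concentration for 50% growth inhibition is given as GI50. The concentration for full growth arrest is given as TGI.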 *1 amine or outer side, *2 acyl side, *3 side chain or, on linkers, in order; H or OH if unused. Where a SMILES comes first, the peptide text is derived from it. [ ]: non-standard residue; d: D form. X56 = CC[C@H](C)[C@H](OC(=O)[C@@H](C)[C@@H](CC)N[*:1])C(=O)[*:2]; X32 = C[C@H](N[*:1])C(=O)C(C)(C)C(=O)[*:2]; NMeY = CN[C@@H](Cc1ccc(O)cc1)C(=O)O; NMeL = CN[C@@H](CC(C)C)C(=O)O; NMeV = CN[C@H](C(=O)O)C(C)C

Some test systems named below: DMS 114 small cell lung; KM20L2 colon; M19-MEL melanoma; XF 498 CNS; DLD-1 colon; HOP-18 NSCLC; SNB-78 CNS; MDA-N; RXF-631 renal.
Assay in all cases: NCI-60 cell line screen, 48 h

Consider `N#CC1C2CCC3(CC2CCN1C(=O)c1ccccc1)OCCO3` (centres undefined), for which the TGI in the assay on DMS 114 small cell lung, with KM20L2 colon, with M19-MEL melanoma, in the assay on XF 498 CNS, with DLD-1 colon and in the assay with HOP-18 NSCLC was more than 100 µM throughout. Moreover, in the assay on SNB-78 CNS, the TGI was more than 100 µM.

Take `O=C(NCc1ccncc1)C1COc2cc(-c3cc(=O)c4ccccc4o3)ccc2O1` (centres undefined): the TGI with KM20L2 colon, in the assay on M19-MEL melanoma, with XF 498 CNS, in the assay on DLD-1 colon and with SNB-78 CNS was more than 100 µM each time.

In the case of `Cc1c(N=Cc2ccc(N(CCC#N)CCC#N)cc2)c(=O)n(-c2ccccc2)n1C`, the TGI with MDA-N was more than 100 µM; in the assay on DMS 114 small cell lung it was more than 100 µM; with KM20L2 colon it was more than 100 µM; in the assay on M19-MEL melanoma it was more than 100 µM; in the assay with XF 498 CNS, more than 80.6 µM; in the assay on DLD-1 colon, more than 100 µM. Moreover, the TGI with HOP-18 NSCLC and with SNB-78 CNS was more than 100 µM each time.

In the case of `CC(C)CN(CC(C)C)C(=O)C1CCCC[C@@H]1C(=O)O` (some centres undefined), the TGI in the assay with RXF-631 renal, in the assay on DMS 114 small cell lung, in the assay with KM20L2 colon, in the assay on M19-MEL melanoma, in the assay on DLD-1 colon and with HOP-18 NSCLC was more than 100 µM throughout. This compound gave a TGI with SNB-78 CNS of more than 100 µM.

Take `O=c1c2cccnc2ncn1CCN1CCCC1`: the TGI with DMS 114 small cell lung, in the assay on KM20L2 colon, in the assay on M19-MEL melanoma, with XF 498 CNS, in the assay on DLD-1 colon and in the assay with SNB-78 CNS was more than 100 µM throughout.

Turning to `Cn1cnc([N+](=O)[O-])c1Sc1nnnn1-c1ccccc1`, the TGI with RXF-631 renal was 30.6 µM; in the assay on DMS 114 small cell lung, 33 µM; in the assay with M19-MEL melanoma it was 24.4 µM; in the assay with XF 498 CNS, 24.6 µM; in the assay with DLD-1 colon, 22.1 µM; in the assay with HOP-18 NSCLC, 8.26 µM. Further, the TGI in the assay with SNB-78 CNS was determined as 34.2 µM.

As to `Nc1nc(-c2cccc([N+](=O)[O-])c2)cc(-c2cc(-c3cccc([N+](=O)[O-])c3)nc(N)n2)n1`, the TGI in the assay with MDA-N was more than 100 µM.

Turning to `CC[C@H](C)[C@@H]1OC(=O)[C@@H](C)[C@@H](CC)NC(=O)[C@H](C)NC(=O)C(C)(C)C(=O)[C@H](C)NC(=O)[C@H](Cc2ccc(OC)cc2)N(C)C(=O)[C@H](C(C)C)N(C)C(=O)CNC(=O)[C@H](CC(C)C)N(C)C(=O)CNC1=O` (cyclo(A[X56]G[NMeL]G[NMeV][NMeY](Me)[X32])), the TGI with DMS 114 small cell lung is 1.13 µM; in the assay on KM20L2 colon, 16.7 µM; in the assay with M19-MEL melanoma it was 22.3 µM; with XF 498 CNS, 0.173 µM; in the assay on DLD-1 colon it was 2.12 µM; with HOP-18 NSCLC, 0.0425 µM.

Turning to `CC/C=C/c1cc2cc[nH]c2c2c1C(C)C[C@@H]2C` (some centres undefined), the TGI with DMS 114 small cell lung is 51 µM; in the assay on M19-MEL melanoma it was 77.3 µM; with DLD-1 colon, more than 100 µM; in the assay on HOP-18 NSCLC, 73.7 µM; in the assay on SNB-78 CNS, 67 µM.

On to `C=CCn1cc(C(=O)NC(=O)NCCCCCOC(=O)CCCCCCCCCCC(=O)OCCCCCNC(=O)NC(=O)c2cn(CC=C)c(=O)n(C)c2=O)c(=O)n(C)c1=O`, for which the TGI with DMS 114 small cell lung, with KM20L2 colon, with M19-MEL melanoma, with XF 498 CNS, in the assay on DLD-1 colon and in the assay with HOP-18 NSCLC was more than 100 µM in each case. For the same compound, the TGI in the assay with SNB-78 CNS was more than 100 µM.

Take `CC1(O)CCC2(C#N)CCC1C2O` (centres undefined): the TGI is more than 100 µM with RXF-631 renal; 31.1 µM in the assay on DMS 114 small cell lung; more than 100 µM in the assay on KM20L2 colon; more than 100 µM in the assay with M19-MEL melanoma; more than 100 µM with XF 498 CNS; more than 100 µM in the assay with DLD-1 colon. Besides, the TGI in the assay on HOP-18 NSCLC and in the assay with SNB-78 CNS was more than 100 µM in each case.

For `S=c1nc(N2CCCCC2)ss1`, the TGI is 79.4 µM in the assay on RXF-631 renal; 42.4 µM with DMS 114 small cell lung; more than 100 µM in the assay on KM20L2 colon; 52.3 µM with M19-MEL melanoma; 44.7 µM with XF 498 CNS; more than 100 µM in the assay on DLD-1 colon. The TGI turned out to be 88.4 µM with HOP-18 NSCLC and 99.1 µM in the assay with SNB-78 CNS.

For `CC1(C)CC(Nc2ccc(Nc3ccccc3)cc2)CC(C)(C)N1`, the TGI in the assay on RXF-631 renal was more than 31.6 µM; in the assay on MDA-N it was 32.7 µM; with DMS 114 small cell lung, 42.9 µM; in the assay on KM20L2 colon, more than 78.6 µM; in the assay with M19-MEL melanoma, more than 94.2 µM; with XF 498 CNS, more than 54.2 µM. Moreover, the TGI in the assay with DLD-1 colon, in the assay with HOP-18 NSCLC and in the assay with SNB-78 CNS was more than 100 µM in each case.

Turning to `C1COCCOCCOCCOCCO1.CC(=O)[CH-]C(C)=O.CC(=O)[CH-]C(C)=O.CC(=O)[CH-]C(C)=O.[V]`, the GI50 in the assay with DMS 114 small cell lung is 28.3 µM; in the assay on KM20L2 colon, 27.4 µM; with DLD-1 colon, 28 µM; in the assay on HOP-18 NSCLC it was 28.2 µM. Besides, the TGI with DMS 114 small cell lung is 82.1 µM; in the assay with KM20L2 colon it was 61.7 µM; in the assay with DLD-1 colon, more than 100 µM; in the assay with HOP-18 NSCLC, 77.9 µM.

As for `CSc1ncnc2c1CCN2`, the TGI in the assay with MDA-N is 8.6 µM; in the assay with DMS 114 small cell lung it was more than 100 µM; in the assay with M19-MEL melanoma, more than 100 µM; in the assay with SNB-78 CNS, more than 100 µM.

Consider `COc1cc(/C=C(\OC(C)=O)c2ccc3c(c2)OCO3)cc(OC)c1OC`, for which the TGI with DMS 114 small cell lung is 29 µM; with KM20L2 colon, more than 100 µM; in the assay on M19-MEL melanoma, 30.9 µM; in the assay on XF 498 CNS, 27.7 µM; with DLD-1 colon it was 60.6 µM; in the assay with HOP-18 NSCLC, more than 100 µM. For the same compound, in the assay with SNB-78 CNS, the TGI came out at 91.9 µM.

Regarding `COC(=O)C1C(OCc2ccccc2)C2CCC1(OC)C=C2C` (centres undefined), the TGI in the assay on DMS 114 small cell lung is more than 100 µM; in the assay on KM20L2 colon, more than 100 µM; in the assay on M19-MEL melanoma, more than 100 µM; in the assay with XF 498 CNS, more than 86.7 µM; with DLD-1 colon it was more than 100 µM; in the assay with HOP-18 NSCLC it was more than 100 µM. The compound further registered a TGI in the assay with SNB-78 CNS of more than 100 µM.

Regarding `N#C/C(=C\c1ccc(C(O)P(=O)(O)O)cc1)C(N)=O` (centres undefined), the TGI in the assay on RXF-631 renal, in the assay on DMS 114 small cell lung, in the assay on KM20L2 colon, in the assay with M19-MEL melanoma, in the assay with XF 498 CNS and in the assay with DLD-1 colon was more than 100 µM each time. Further, the TGI in the assay with HOP-18 NSCLC and in the assay with SNB-78 CNS was more than 100 µM in each case.

`Cc1cc(=O)oc2cc(OS(C)(=O)=O)ccc12`: the TGI in the assay on MDA-N is more than 100 µM.
